Where two headings read alike, the source gives them in different places.
Assays:
pressure stimulation = test: Tail-pressure test; format: in vivo, mouse; conditions: either oral or subcutaneous administration (FIG. 67, 68)
Description: The maximum pressure was 100 mmHg. The mice used for the experiment reacted to the pressure range between 40 mmHg and 50 mmHg in pre-selective experiment. A few mice or a few dozen of mice under the same condition were stimulated by adding pressure and respective threshold values for the pain reaction were measured in constant intervals after administration in accordance with different drugs administered and the different dosage thereof. According to the measurement value of the pain reaction threshold value, a percent of maximum possible effect, (% of MPE) was calculated using the following formula to quantify the anti-nociceptive activity. % of MPE=[(Pt−P0)/(Pc−Po)]×100 (in the formula, Po is a pain reaction threshold value before drug administration; Pt is a pain reaction threshold value t minute after drug administration; and Pc is a maximum simulative pressure)
The mouse which reacted to 532 through 665 Pa (40-50 mmHg) was reselected for the test. In addition the maximal stimulating pressure was set as 1333 Pa (100 mmHg). Then % MPE at this point was calculated from formula (1) as well as noted above.

[1] = tested on: MSU induced knee osteoarthritis pain; test: MSU induced knee osteoarthritis pain model, hind leg paw-pressure ratio; format: in vivo, rat; set-up: key to AUC of time-course variation of anti-nociceptive activity: AUC of the time course of anti-nociceptive activity as % MPE; conditions: for activity lasting-time: orally administered
Description: (§1) Experimental animal, male SD type rats, weighing the body weight in the range of 170 to 190 g, were used for the studies. The animals had been kept under constant conditions (room temperature 23±1° C., humidity 52±2%, 12 hours light-and-dark cycle having light time 7:00 to 19:00 and dark time 19:00 to 7:00) until used for an experiment. The animals were fed the mouse solid diet (F2, Funabashi farm. Funabashi, Japan) with unrestricted tap water intake, and kept in captivity for at least more than two days in a laboratory.
Any test drugs were dissolved in Ringer's solution (Fuso Yakuhin) to be used.
MSU was suspended with the suspension solution (10% of polyoxyethylene sorbitan mono-oleate (Tween 80: Nakarai Tesk) as 0.1 g per 1 mL. The animal was anesthetized with diethyl ether and after the surface of its left hind leg knee joint was wiped with 70% ethanol cotton, a porous administration of the suspension solution above noted was conducted into the cavity of let hind leg knee joint.
Pressures to both hind leg paw were measured using a paw-pressure measurement apparatus and recorded. Measurement time at respective times was 4.5 seconds. Calculated paw-pressure ratio (ppr) is a value calculated by dividing the pressure on the left hind leg by the pressure on the right hind leg according to the measured pressures on both hind legs.
The anti-nociceptive effect was evaluated quantitatively by calculating % MPE (% of maximum possible effect) according to the following formula. [formula]
In the formula, ppr 0 and ppr 1 are respective paw-pressure ratios on both hind legs before and after administration. ED50 value of anti-nociceptive activity was calculated using GraphPad Prism data-graph processing software version 4.0, San Diego, Calif., USA.
The strength of anti-nociceptive activity was represented by calculating the time-course variation of anti-nociceptive activity AUC using GraphPad Prism noted above.
Paw-pressure was measured twice at 4 hours after administration to provide ppr by calculation and the average of those values was both hind leg paw-pressure ratio before the drug administration. After the measurement of both hind leg paw-pressure before the drug administration, 0.1 mL of Ringer's solution or a test drug in Ringer's solution per 100 g rat body weight was orally administered, and then a paw-pressure was measured once every unit time after the oral administration.
Statistical processing was conducted using GraphPad Prism. After the two-way layout dispersion analysis, the hazard-ratio of P<0.05 was decided to be a significant difference according to Bonferroni post-test. The hazard-ratios were distinguished into less than 5% (P<0.05) and less than 1% (P<0.01) and represented as “*” and “**” in the same manner conducted for the Tail-flick method.

inflammatory pain model = test: Rheumatoid arthritis / inflammatory pain model (CFA), Von Frey filament method; format: in vivo, mouse; conditions: for ED50: Mus musculus, po, read-out: ED50 of the anti-nociceptive activity calculated using the unit-time AUC value
Description: as §1, with “ddy” for “SD”, “mice (Nihon SLC),” for “rats,”, “15” for “170”, “20” for “190”
A mouse was firmly fixed without anesthesia and 25 μL of Complete Freund's Adjuvant (CFA) using a number 30 guage needle (Termo) was subcutaneously administered into the dorsum of left hind foot to provide an inflammatory pain model. The model was kept under the conditions noted above until used for the test.
Measurement of anti-nociceptive activity on the inflammatory pain model was conducted according to Von Fray filament method as well as on never damaged model 5 days after CFA administration. The drugs were orally administered.
The anti-nociceptive activity is represented as a unit AUC value (AUC/min) which is the total AUC value or AUC divided by the measurement time and compared to study. ED50 of the anti-nociceptive activity was calculated by reducing the measurement value to a percentage of the upper limit which was set as 2.0 for the unit AUC.

[2] = rat, MSU knee model, oral 15 mg/kg
[3] = rat, MSU knee model, oral 30 mg/kg

Molecule | dosage providing the same AUC, as part of morphine dosage (pressure stimulation) | anti-nociceptive activity compared with morphine and oxycodone ([1]; knee osteoarthritis model, FIGS. 77 and 78) | activity lasting-time, times longer than for morphine ([1]; rat, MSU knee model, oral) [times] | activity peak ([1]; rat, MSU knee model, oral) [min] | AUC of time-course variation of anti-nociceptive activity ([1]; rat, MSU knee model, oral 7.5 mg/kg) | AUC of time-course variation of anti-nociceptive activity [1, 2] | AUC of time-course variation of anti-nociceptive activity [1, 3] | ED50 value at activity peak ([1]; rat, MSU knee model, oral, %MPE, range in parentheses) | anti-nociceptive activities, times stronger than for morphine ([1]; rat, MSU knee model, oral, from ED50 of AUCs) [times] | ED50 of AUCs ([1]; rat, MSU knee model, oral, range in parentheses) | anti-nociceptive activity lasting-times, times longer than for morphine ([1]; rat, MSU knee model, oral, stated after ED50 at activity peak) [times] | activity lasting-time ([1]; rat, MSU knee model) [min] | ED50 (inflammatory pain model; CFA administered foot) [mg/kg] | ED50 (inflammatory pain model; CFA non-administered foot) [mg/kg] | lasting time of anti-nociceptive activity (inflammatory pain model; mice, CFA model, oral) [min] | peak of anti-nociceptive activity after administration (inflammatory pain model; mice, CFA model, oral) [min] | AUC of time-course variation of anti-nociceptive activity ([1]; rat, MSU knee model, oral 60 mg/kg) | ED50 ([1]; rat, MSU knee model, oral, %MPE, range in parentheses, read-out: ED50 value at activity peak) [mg/kg]
Iminoethyl-[Tyr]-[D-Met(O)]-[Phe]-[N-MeβAla]-NHCH3 [SS8225-07] | one hundredth through one twentieth | stronger than morphine, and stronger than or equal to oxycodone | 1.2 | 120 | 2919 | 7894 | 20162 | 16.95 (3.17-90.59) mg/Kg | ~2.1 | 40.38 (31.08-52.48) mg/kg | 2.2 | 360 | – | – | – | – | – | –
CN1CC[C@]23c4c5ccc(O)c4O[C@H]2[C@@H](O)C=C[C@H]3[C@H]1C5 [Morphine] | – | – | – | 90 | – | 1724 | 4485 | – | – | – | – | 300 | 113 | 67.9 | 360 | 30 | 13883 | 37.2

Reference: US20080009448A1, “Peptide Derivative” (priority 2006, published 2008)
